This note sets out measurements from patent US10150737B2, “Compounds for controlling arthropods” (priority 2013, dated 2018).

One series relates to Amblyomma hebraeum. The series can be described thus: Amblyomma hebaraeum test (tick nymphs, immersion). The settings on record: application rate 100 ppm; tick nymphs immersed one minute; after 42 days. Type of series: in vivo. The essentials:
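Mortality (%) is read 42 days post-treatment, where 0% means no ticks and 100% all ticks killed. Nymphs were dipped for 1 min into the test dilution (DMSO stock diluted with water) and afterwards stored on filter paper under controlled climate.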

In series [1] the test system is Ctenocephalides felis. The series can be described thus: Ctenocephalides felis - oral test. Type of series: in vivo. Conditions: application rate 100 ppm in citrated cattle blood; after 2 days. The essentials:
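Roughly 20 unfed adult C. felis imbibe compound-dosed citrated cattle blood (DMSO formulation) across parafilm from a cylinder above their gauze chamber; percentage mortality recorded at day 2.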

A further series deals with Rhipicephalus sanguineus. The series can be described thus: Rhipicephalus sanguineus - in vitro contact tests with adult brown dog ticks. The settings on record: after 48 h, ticks dead or moribund. In kind it is in vivo. The essentials: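 Efficacy, scored after 48 h, is the % of adult ticks dead or moribund, i.e. unable to climb away on a 45-50° C hotplate within 5 min. Tubes held 5-10 ticks in the dark at room temperature, on an acetone-applied coating of 5 μg/cm^2 (900 ppm solution).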

The subject of series [2] is Ctenocephalides felis. Put plainly: Ctenocephalides felis - in vitro contact tests with adult cat fleas. Type of series: in vivo. The settings on record: application rate 5 μg/cm2 (=500 g/ha); after 48 h; fleas dead or moribund. The essentials:
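Efficacy, as percentage of fleas dead or moribund, was scored at 48 h by knocking fleas to the tube base. Exposure was by contact with a dried acetone film of compound at 5 μg/cm^2 area dose; 5–10 adults per tube, room temperature, ambient humidity.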

For a further series, the system named is Lucilia cuprina. Put plainly: Lucilia cuprina test. The settings on record: application rate 100 ppm; L1 larvae; after 2 days. Type of series: in vivo. The essentials:
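Mortality (%) of first-instar blowfly larvae, about 20 per vessel, recorded 2 days after exposure to compound-treated minced horsemeat. Compound dissolved in dimethyl sulphoxide, then water-diluted to the desired concentration.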

The next series concerns Tetranychus urticae. Put plainly: Tetranychus urticae - spray test, OP-resistant. The settings on record: bean leaf discs, after 6 days. In kind it is in vivo. The essentials:
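Mortality (%) read on day 6 after spraying Phaseolus vulgaris leaf discs carrying all mite stages with formulations at the desired concentration. Formulation: active ingredient in acetone plus dimethylformamide, made up with emulsifier-containing water (1000 ppm alkylaryl polyglycol ether).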

For the next series, the system named is Spodoptera frugiperda. Put plainly: Spodoptera frugiperda - spray test. Type of series: in vivo. Conditions: caterpillars on maize leaf discs, after 7 days. In short, it runs like this: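 Percent mortality of Spodoptera frugiperda caterpillars scored 7 days after placing them on dried maize leaf discs sprayed at the desired concentration. Spray formulation: compound dissolved in acetone/dimethylformamide, made up with water containing 1000 ppm emulsifier.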

The next series relates to Myzus persicae. The series can be described thus: Myzus persicae - spray test. Type of series: in vivo. The settings on record: Chinese cabbage leaf discs, after 6 days. The essentials: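 Mortality of the green peach aphid, as % killed, was read 6 days after spraying infested Brassica pekinensis leaf discs. Compound formulated in acetone/dimethylformamide and made up with emulsifier-containing (1000 ppm) water.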

Series [3] concerns Boophilus microplus Parkhurst strain, SP-resistant. The series can be described thus: Boophilus microplus - dip test. In kind it is in vivo. Conditions: application rate 100 ppm; dip of engorged adult female ticks; after 7 days. The essentials: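 Compound dissolved in DMSO, diluted with water, and used to fully wet groups of 8-10 engorged female cattle ticks (SP-resistant Parkhurst strain). Fertile egg laying assessed at 7 days, doubtful eggs held ~42 days until hatch; 0% means all eggs fertile.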

For a further series, the system named is Boophilus microplus. Put plainly: Boophilus microplus - injection test. Type of series: in vivo. Conditions: application rate 20 μg/animal; injection into engorged adult female ticks; after 7 days. The essentials:
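Five engorged adult female cattle ticks each received a 1 μl abdominal injection of compound solution in dimethyl sulphoxide. Fertile egg laying was assessed at 7 days, with doubtful eggs incubated about 42 days until hatch. 0% efficacy means all eggs fertile.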

Series [4] in a line: logP determination by HPLC on a reversed-phase column (C18). Type of series: physicochemical. The settings on record: for logP^a): HPLC-MS method a); for log P: HPLC-MS.
The test system of a further series is Musca domestica. Put plainly: Musca domestica test. In kind it is in vivo. The settings on record: application rate 100 ppm; adult houseflies; after 2 days. The essentials: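 10 adult flies per vessel; sugar-solution sponge dosed with active ingredient formulation (DMSO concentrate diluted in water to desired concentration). Read-out: % kill at 2 days.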
In another series the test system is Phaedon cochleariae. The series can be described thus: Phaedon cochleariae - spray test. Type of series: in vivo. Conditions: larvae on Chinese cabbage leaf discs, after 7 days. In short, it runs like this: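 Mortality of mustard beetle larvae was scored as % at day 7 on Brassica pekinensis leaf discs. Discs had been treated by spraying at the desired concentration, using an acetone/dimethylformamide solution diluted in water with 1000 ppm alkylaryl polyglycol ether, and dried before larvae were added.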

The mark [5] stands for this setting: reversed-phase column (C18), Table I-T3.

`Cc1cc(C(F)(C(F)(F)F)C(F)(F)F)cc(C(F)(F)F)c1-n1cc(-c2ccc(Cl)c(C(=O)NC3(C#N)CC3)c2)cn1` [I-T3-55]: the “efficacy (kill)” value with Amblyomma hebraeum, in the series on Ctenocephalides felis [1], in the series on Lucilia cuprina and in the series with Musca domestica was 100% throughout. Also, the efficacy in the series on Rhipicephalus sanguineus (application rate 5 μg/cm2), with Ctenocephalides felis [2], in the series with Tetranychus urticae (application rate 100 g/ha), in the series with Spodoptera frugiperda (application rate 100 g/ha), in the series on Myzus persicae (application rate 100 g/ha) and in the series on Phaedon cochleariae (application rate 100 g/ha) was 100% in each case. The “efficacy (laying of fertile eggs)” value (in [3]; with Boophilus microplus) was 100% throughout. Moreover, the “logP^a)” value in series [4] and in series [4] (setting [5]) was 4.3 throughout.
Regarding `Cc1cc(C(F)(C(F)(F)F)C(F)(F)F)cc(Cl)c1-n1cc(-c2ccc(Cl)c(C(=O)NC3(C#N)CC3)c2)cn1` [I-T3-64], the “efficacy (kill)” value in the series with Amblyomma hebraeum, in the series on Ctenocephalides felis [1], with Lucilia cuprina and in the series on Musca domestica was 100% each time. In addition, the efficacy is listed as 80% with Rhipicephalus sanguineus (application rate 0.2 μg/cm2); 100% in the series on Ctenocephalides felis [2]; 100% with Tetranychus urticae (application rate 100 g/ha); 100% with Spodoptera frugiperda (application rate 100 g/ha); 90% with Myzus persicae (application rate 100 g/ha); 100% in the series on Phaedon cochleariae (application rate 100 g/ha). The “efficacy (laying of fertile eggs)” value (in [3]; in the series on Boophilus microplus) was 100% throughout. For the same compound, the “logP^a)” value in series [4] and in series [4] (setting [5]) was 4.2 each time.
In the case of `CCc1cc(C(F)(C(F)(F)F)C(F)(F)F)cc(Cl)c1-n1cc(-c2ccc(Cl)c(C(=O)NC3CC3)c2)cn1` [I-T3-72], the “efficacy (kill)” value in the series with Amblyomma hebraeum, in the series on Ctenocephalides felis [1], with Lucilia cuprina and in the series with Musca domestica was 100% in each case. Besides, the efficacy in the series with Rhipicephalus sanguineus (application rate 5 μg/cm2) stood at 100%; in the series with Ctenocephalides felis [2], 100%; with Tetranychus urticae (application rate 100 g/ha), 100%; in the series with Spodoptera frugiperda (application rate 100 g/ha), 100%; with Myzus persicae (application rate 100 g/ha) it was 90%; in the series with Phaedon cochleariae (application rate 100 g/ha), 100%. Further, the “efficacy (laying of fertile eggs)” value (in series [3]; with Boophilus microplus) was 100% in each case. Further, the “logP^a)” value in series [4] and in [4] (setting [5]) was 4.6 in each case.
For the compound `CCc1cc(C(F)(F)C(F)(F)F)cc(C)c1-n1cc(-c2ccc(Cl)c(C(=O)NC3CC3)c2)cn1` [I-T3-81], the “efficacy (kill)” value with Amblyomma hebraeum was found to be 100%; in the series on Ctenocephalides felis [1], 100%; with Lucilia cuprina it was 100%; in the series on Musca domestica, 90%. In addition, the efficacy in the series with Rhipicephalus sanguineus (application rate 5 μg/cm2) is 100%; in the series with Ctenocephalides felis [2] it was 100%; with Tetranychus urticae (application rate 100 g/ha) it was 100%; in the series on Spodoptera frugiperda (application rate 100 g/ha) it was 100%; in the series with Myzus persicae (application rate 100 g/ha), 90%; with Phaedon cochleariae (application rate 100 g/ha) it was 100%. Also, the “efficacy (laying of fertile eggs)” value (in series [3]; in the series with Boophilus microplus) was 100% each time. The “logP^a)” value in [4] and in series [4] (setting [5]) was 4.3 throughout.
Usually log P stands for a log measure of how a compound divides between an organic and an aqueous phase. Read a high log P as higher lipophilicity. Consider `Cc1ncc(-c2cnn(-c3c(Cl)cc(C(F)(C(F)(F)F)C(F)(F)F)cc3Cl)c2)cc1C(=O)NC1CC1` [I-T3-91], for which the “efficacy (kill)” value in the series on Amblyomma hebraeum, in the series on Ctenocephalides felis [1], with Lucilia cuprina and in the series on Musca domestica was 100% in each case. The efficacy turned out to be 100% in the series with Rhipicephalus sanguineus (application rate 5 μg/cm2); 100% with Ctenocephalides felis [2]; 100% in the series with Tetranychus urticae (application rate 500 g/ha); 100% with Spodoptera frugiperda (application rate 500 g/ha); 90% with Myzus persicae (application rate 500 g/ha); 100% in the series with Phaedon cochleariae (application rate 500 g/ha). For the same compound, the “efficacy (laying of fertile eggs)” value (in [3]; in the series with Boophilus microplus) was 100% throughout. Also, the “logP^a)” value in series [4] turned out to be 3.3. In addition, the “log P” value in series [4] (setting [5]) is 3.3.
Take `Cc1ncc(-c2cnn(-c3c(Cl)cc(C(F)(C(F)(F)F)C(F)(F)F)cc3Cl)c2)cc1C(=O)NC1(C#N)CC1` [I-T3-92]: the “efficacy (kill)” value in the series on Amblyomma hebraeum, with Ctenocephalides felis [1], in the series on Lucilia cuprina and in the series with Musca domestica was 100% in each case. In addition, the efficacy stood at 80% in the series on Rhipicephalus sanguineus (application rate 5 μg/cm2); 100% with Ctenocephalides felis [2]; 100% in the series with Tetranychus urticae (application rate 500 g/ha); 100% with Spodoptera frugiperda (application rate 500 g/ha); 100% in the series on Myzus persicae (application rate 500 g/ha); 100% in the series with Phaedon cochleariae (application rate 500 g/ha). Further, the “efficacy (laying of fertile eggs)” value (in series [3]; in the series with Boophilus microplus) was 100% in each case. In [4], the “logP^a)” value is listed as 3.4. For the same compound, in series [4] (setting [5]), the lipophilicity (log P) is 3.4.
Regarding `Cc1cc(C(F)(C(F)(F)F)C(F)(F)F)cc(C)c1-n1cc(-c2cnc(C)c(C(=O)NC3CC3)c2)cn1` [I-T3-96], the “efficacy (kill)” value with Amblyomma hebraeum, with Ctenocephalides felis [1], with Lucilia cuprina and in the series on Musca domestica was 100% throughout. Besides, the efficacy is 100% in the series with Rhipicephalus sanguineus (application rate 5 μg/cm2); 100% in the series with Ctenocephalides felis [2]; 100% with Tetranychus urticae (application rate 500 g/ha); 100% in the series on Spodoptera frugiperda (application rate 500 g/ha); 90% with Myzus persicae (application rate 100 g/ha); 100% with Phaedon cochleariae (application rate 500 g/ha). For the same compound, the “efficacy (laying of fertile eggs)” value (in [3]; in the series on Boophilus microplus) was 100% each time. Further, the “logP^a)” value in series [4] came to 3.3. In addition, the “log P” value in series [4] (setting [5]) is 3.3.
Turning to `Cc1cc(C(F)(C(F)(F)F)C(F)(F)F)cc(C)c1-n1cc(-c2cnc(C)c(C(=O)NC3(C#N)CC3)c2)cn1` [I-T3-97], the “efficacy (kill)” value in the series on Amblyomma hebraeum, with Ctenocephalides felis [1], in the series with Lucilia cuprina and in the series with Musca domestica was 100% each time. Also, the efficacy stood at 100% in the series with Rhipicephalus sanguineus (application rate 5 μg/cm2); 100% in the series on Ctenocephalides felis [2]; 100% with Tetranychus urticae (application rate 500 g/ha); 100% with Spodoptera frugiperda (application rate 500 g/ha); 90% with Myzus persicae (application rate 500 g/ha); 100% in the series on Phaedon cochleariae (application rate 500 g/ha). For the same compound, the “efficacy (laying of fertile eggs)” value (in [3]; in the series on Boophilus microplus) was 100% throughout. Further, the “logP^a)” value in series [4] worked out at 3.4. Besides, the log partition coefficient (log P) in series [4] (setting [5]) is given as 3.4.
Consider `O=C(NC1CC1)c1cc(-c2cnn(-c3c(Cl)cc(C(F)(F)F)cc3Cl)c2)cnc1Cl` [I-T3-98], for which the “efficacy (kill)” value in the series with Amblyomma hebraeum is recorded as 100%; in the series on Ctenocephalides felis [1], 100%; in the series with Lucilia cuprina, 100%; with Musca domestica it was 90%. For the same compound, the efficacy in the series with Rhipicephalus sanguineus (application rate 5 μg/cm2) was found to be 100%; in the series on Ctenocephalides felis [2], 100%; in the series with Tetranychus urticae (application rate 500 g/ha) it was 100%; in the series on Spodoptera frugiperda (application rate 500 g/ha), 100%; in the series with Myzus persicae (application rate 100 g/ha) it was 90%; with Phaedon cochleariae (application rate 500 g/ha), 100%. For the same compound, the “efficacy (laying of fertile eggs)” value (in [3]; in the series on Boophilus microplus) was 100% throughout. For the same compound, the “logP^a)” value in series [4] came to 3.1. The log partition coefficient (log P) in series [4] (setting [5]) stood at 3.1.
